Measurements reported in patent publication US7732451B2, “Naphthalene-containing melanocortin receptor-specific small molecule” (Palatin Technologies, Inc., priority 2002, dated 2010).

Key:
[1] = IV feeding studies, change in food intake and body weight; format: in vivo, rat; settings: 3 μg/Kg, male Sprague-Dawley rats
Method: Change in food intake and body weight was evaluated for selected compounds. Male Sprague-Dawley rats weighing ˜300 g at the beginning of the experiment were kept on a 12 hour on/off light cycle. Lights out was adjusted to 12:00 p.m. to allow for dosing just prior to the start of their dark period. Rats (8-12/group) were fed powdered chow and water ad libitum. For 1 week before treatment, 24-hour food intake and body weight change was recorded to assess a baseline for the group during vehicle treatment. […] The changes in body weight and food intake for the 24 hour period after dosing were determined. The changes in body weight and food intake for the 48 hour period, and in same cases for 72 hours as well, after dosing were also measured to determined reversal of changes in body weight and food intake effect back to baseline.

[2] = ICV feeding studies, change in food intake and body weight; format: in vivo, rat; settings: 1 nmol, male Sprague-Dawley rats
Method: Change in food intake and body weight was evaluated for selected compounds. Male Sprague-Dawley rats weighing ˜300 g at the beginning of the experiment were kept on a 12 hour on/off light cycle. Lights out was adjusted to 12:00 p.m. to allow for dosing just prior to the start of their dark period. Rats (8-12/group) were fed powdered chow and water ad libitum. For 1 week before treatment, 24-hour food intake and body weight change was recorded to assess a baseline for the group during vehicle treatment. The rats were dosed ICV with vehicle or selected compounds (1-3 nmol). The changes in body weight and food intake for the 24 hour period after dosing were determined. The changes in body weight and food intake for the 48 hour period, and in same cases for 72 hours as well, after dosing were also measured to determined reversal of changes in body weight and food intake effect back to baseline.

[3] = penile erection (PE) studies in male rats; format: in vivo, rat; settings: IV, dose levels of 0.3, 3 and 30 μg/Kg
Method: The ability of compounds to induce penile erection (PE) in male rats was evaluated with selected compounds. Male Sprague-Dawley rats weighing 200-250 g were kept on a 12 hour on/off light cycle with food and water ad libitum. All behavioral studies were performed between 10 a.m. and 5 p.m. Groups of 4-8 rats were treated with compounds at a variety of doses via intravenous (IV) or intracerebroventricular (ICV) routes. Immediately after treatment, rats were placed into individual polystyrene cages (27 cm long, 16 cm wide, and 25 cm high) for behavioral observation. The iv and icv treated rats were observed respectively for 30 minutes and 120 min and the number of yawns, grooming bouts and PEs were recorded in 10-minute bins.

hMC5-R = target: T1, hMC5-R (Homo sapiens, UniProt P33032); experiment: competitive inhibition binding assay, 125I-NDP-α-MSH, membranes
T1 construct: expressed in transfected cells
Method: (§1) A competitive inhibition binding assay was conducted using membranes prepared from hMC3-R, hMC4-R, hMC5-R, and B-16 mouse melanoma cells (containing MC1-R) using 0.4 nM ^125I-NDP-α-MSH (New England Nuclear, Boston, Mass., USA) in 50 mM HEPES buffer containing 1 mM MgCl2, 2 mM CaCl2, and 5 mM KCl, at pH 7.2. The assay tube also contained a chosen concentration of the test compound of this invention, for determining its efficacy in inhibiting the binding of ^125I-NDP-α-MSH to its receptor.
(§2) Incubation was for 90 minutes at room temperature, after which the assay mixture was filtered and the membranes washed three times with ice cold buffer. The filter was dried and counted in a gamma counter for remaining radioactivity bound to the membranes. 100% specific binding was defined as the difference in radioactivity (cpm) bound to cell membranes in the absence and presence of 1 μM α-MSH. […] Each assay was conducted in triplicate and the actual mean values are described. The Ki (nM) of certain compounds of the invention were determined.

[4] = target: T2, MC1-R (B-16 mouse melanoma cells) (Mus musculus, UniProt Q01727); experiment: as above
T2 construct: B-16 mouse melanoma cells (containing MC1-R); endogenous in cells; host or cells: B-16 mouse melanoma cells
Method: as §1, §2

hMC4-R = target: T3, hMC4-R (Homo sapiens, UniProt P32245); experiment: as above
T3 construct: expressed in transfected cells
Method: as §1, §2

hMC3-R = target: T4, hMC3-R (Homo sapiens, UniProt P41968); experiment: as above
T4 construct: expressed in transfected cells
Method: as §1, §2

[5] = target: T5, MC5-R (HEK-293 cells expressing MC5-R) (Homo sapiens, UniProt P33032); experiment: cAMP assay for agonist/antagonist status; format: cell-based; settings: antagonism = inhibition of α-MSH-induced cAMP
T5 construct: expressed in transfected cells; host or cells: HEK-293
Method: (§3) Functional evaluation of compounds at melanocortin receptors was performed by measuring the accumulation of intracellular cAMP in HEK-293 cells expressing MC3-R, MC4-R or MC5-R, and in B-16 mouse melanoma cells (containing MC1-R). Cells, suspended in Earle's Balanced Salt Solution containing 10 mM HEPES, pH 7.5, 5 mM MgCl2, 1 mM glutamine, 0.1% albumin and 0.6 mM 3-isobutyl-1-methyl-xanthine, a phosphodiesterase inhibitor, were plated in 96 well plates at a density of 0.5×10^5 cells per well. Cells were incubated with the test compounds in the presence or absence of α-MSH for 1 hour at 37° C. cAMP levels were measured by EIA (Amersham) in the cell lysates. Data analysis and EC50 values were determined using nonlinear regression analysis with Prism Graph-Pad software.
(§4) The agonist/antagonist status with respect to MC4-R of certain compounds of the invention was determined. Antagonistic activity was determined by measuring the inhibition of α-MSH-induced cAMP levels following exposure to the compounds as in Example 2.

[6] = target: T2, MC1-R (B-16 mouse melanoma cells); experiment: cAMP assay for agonist/antagonist status; format: cell-based; settings: antagonism = inhibition of α-MSH-induced cAMP
Method: as §3, §4

[7] = target: T6, MC4-R (HEK-293 cells expressing MC4-R) (Homo sapiens, UniProt P32245); experiment: cAMP assay for agonist/antagonist status; format: cell-based; settings: antagonism = inhibition of α-MSH-induced cAMP
T6 construct: expressed in transfected cells; host or cells: HEK-293
Method: as §3, §4

T2 sequence (Q01727 whole entry): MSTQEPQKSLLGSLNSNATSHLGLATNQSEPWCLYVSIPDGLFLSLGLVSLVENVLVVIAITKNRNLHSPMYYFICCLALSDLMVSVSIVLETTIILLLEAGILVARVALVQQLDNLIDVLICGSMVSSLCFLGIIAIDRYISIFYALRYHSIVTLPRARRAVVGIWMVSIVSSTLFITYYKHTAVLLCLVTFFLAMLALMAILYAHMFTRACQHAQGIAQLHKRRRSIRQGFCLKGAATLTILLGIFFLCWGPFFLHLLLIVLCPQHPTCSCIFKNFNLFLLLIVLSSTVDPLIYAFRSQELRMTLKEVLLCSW
T1 sequence (P33032 whole entry): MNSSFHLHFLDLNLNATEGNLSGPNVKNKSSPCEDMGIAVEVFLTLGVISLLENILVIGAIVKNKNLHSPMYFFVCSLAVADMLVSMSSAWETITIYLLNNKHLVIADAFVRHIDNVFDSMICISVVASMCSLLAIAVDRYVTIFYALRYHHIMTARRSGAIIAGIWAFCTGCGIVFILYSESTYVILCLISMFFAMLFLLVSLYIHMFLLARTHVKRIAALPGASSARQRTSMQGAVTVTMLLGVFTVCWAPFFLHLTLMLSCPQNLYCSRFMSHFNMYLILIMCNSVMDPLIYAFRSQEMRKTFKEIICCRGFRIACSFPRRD
T4 sequence (P41968 whole entry): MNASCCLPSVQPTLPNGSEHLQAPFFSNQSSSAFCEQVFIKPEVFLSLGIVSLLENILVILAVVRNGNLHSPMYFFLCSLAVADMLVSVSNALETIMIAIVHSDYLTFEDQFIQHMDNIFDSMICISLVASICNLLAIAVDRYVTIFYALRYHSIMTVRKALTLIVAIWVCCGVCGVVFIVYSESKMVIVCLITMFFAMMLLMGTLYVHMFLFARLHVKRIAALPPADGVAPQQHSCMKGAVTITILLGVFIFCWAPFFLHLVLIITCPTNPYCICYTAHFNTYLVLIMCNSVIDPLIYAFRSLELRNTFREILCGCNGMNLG
T3 sequence (P32245 whole entry): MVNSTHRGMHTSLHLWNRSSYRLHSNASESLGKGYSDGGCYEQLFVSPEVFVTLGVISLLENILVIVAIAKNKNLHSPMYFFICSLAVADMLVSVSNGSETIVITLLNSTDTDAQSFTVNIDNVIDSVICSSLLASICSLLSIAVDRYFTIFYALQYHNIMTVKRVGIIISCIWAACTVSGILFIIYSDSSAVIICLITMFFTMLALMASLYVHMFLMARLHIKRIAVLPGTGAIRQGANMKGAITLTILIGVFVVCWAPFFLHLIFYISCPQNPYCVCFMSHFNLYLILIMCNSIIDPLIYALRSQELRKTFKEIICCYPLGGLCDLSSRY
T5 sequence (P33032 whole entry): as the sequence (P33032 whole entry) above
T6 sequence (P32245 whole entry): as the sequence (P32245 whole entry) above

Structure (SMILES): C[C@@H]1CN(C(=O)[C@H](N)Cc2ccc(Cl)cc2)[C@@H](CCCNC(=N)N)CN1CCc1ccc2ccccc2c1 [Example 15, N-{3-[1-[2(R)-Amino-3-(4-chloro-phenyl)-propionyl]-5(R)-methyl-4-(2-naphthalen-2-yl-ethyl)-piperazin-2(S)-yl]-propyl}-guanidine]
- 24 hour change in food intake [1]: -9.6 g
- change in weight ([1]; 24 hour): -6.6 g
- 24 hour change in food intake [2]: -3.9 g
- change in weight ([2]; 24 hour): -3.9 g
- PE effect [3]: no observed effect
- inhibition at 1 µM (hMC5-R; 1 μM compound, average of triplicates, read-out: Inhibition at 1 μM MC5-R): 52%
- Ki (hMC5-R; read-out: Ki (nM) MC5-R): 551 nM
- inhibition at 1 µM ([4]; 1 μM compound, average of triplicates, results less than 0% reported as 0%): 85%
- Ki ([4]; read-out: Ki (nM) MC1-R): 94 nM
- inhibition at 1 µM (hMC4-R; 1 μM compound, average of triplicates, read-out: Inhibition at 1 μM MC4-R): 97%
- Ki (hMC4-R; read-out: Ki (nM) MC4-R): 11 nM
- inhibition at 1 µM (hMC3-R; 1 μM compound, average of triplicates, read-out: Inhibition at 1 μM MC3-R): 61%
- Ki (hMC3-R; read-out: Ki (nM) MC3-R): 160 nM
- agonist/antagonist status as to MC5-R [5]: agonist
- agonist/antagonist status as to MC1-R [6]: agonist
- agonist/antagonist status as to MC4-R [7]: agonist
